Assay results published in ChEMBL document CHEMBL5131425, “Microbial transformation and inhibitory effect assessment of uvaol derivates against LPS and HMGB1 induced NO production in RAW264.7 macrophages” (Bioorg Med Chem Lett, 2022).

Legend:
[1] = Cytotoxicity against mouse RAW264.7 cells assessed as cell viability at 50 uM; assay type: toxicity, cell-based; settings: read-out: Activity
RAW264.7 [2] = assay: Anti-inflammatory activity in mouse RAW264.7 cells assessed as inhibition of HMGB1-induced NO production; assay type: functional, cell-based
RAW264.7 [3] = assay: Anti-inflammatory activity in mouse RAW264.7 cells assessed as inhibition of LPS-induced NO production; assay type: functional, cell-based

| SMILES | viability at 50 µM [1] | IC50 (RAW264.7 [2]) | IC50 (RAW264.7 [3]) |
| --- | --- | --- | --- |
| C[C@H]1[C@H](C)[C@@H](O)C[C@@]23CC[C@@]4(C)[C@@]5(C)[C@H](C=C[C@]4(OC2)[C@H]13)[C@@]1(C)CC[C@H](O)C(C)(C)[C@@H]1C[C@@H]5O | 94.2% | 47.2 µM | 4.8 µM |
| C[C@H]1[C@H](C)[C@@H](O)C[C@]2(CO)CC[C@]3(C)C(=CC[C@@H]4[C@@]5(C)CC[C@H](O)C(C)(C)[C@@H]5C[C@H](O)[C@]43C)[C@H]12 | 94.2% | > 100 µM | 2.22 µM |
| C[C@@H]1[C@H]2C3=CC[C@@H]4[C@@]5(C)CC[C@H](O)[C@@](C)(CO)[C@@H]5CC[C@@]4(C)[C@]3(C)CC[C@@]2(CO)[C@@H](O)C[C@H]1C(=O)O | 118% | 60.4 µM | 29.9 µM |
| C[C@H]1[C@H](C(=O)O)[C@@H](O)C[C@]2(CO)CC[C@]3(C)C(=CC[C@@H]4[C@@]5(C)CC[C@H](O)[C@](C)(CO)[C@@H]5CC[C@]43C)[C@H]12 | 112% | 91.6 µM | 0.55 µM |
| C[C@H]1[C@H](C(=O)O)[C@@H](O)C[C@]2(CO)CC[C@]3(C)C(=CC[C@@H]4[C@@]5(C)CC[C@H](O)[C@@](C)(CO)[C@@H]5CC[C@]43C)[C@H]12 | 124% | > 100 µM | > 100 µM |
| C[C@@H]1[C@H]2C3=CC[C@@H]4[C@@]5(C)CC[C@H](O)[C@](C)(CO)[C@@H]5CC[C@@]4(C)[C@]3(C)CC[C@@]2(CO)[C@@H](O)C[C@H]1C(=O)O | 117% | 100 µM | > 100 µM |
| CC1(C)[C@@H](OC(=O)CCC(=O)O)CC[C@]2(C)[C@H]3C(=O)C=C4[C@@H]5C[C@@](C)(C(=O)O)CC[C@]5(C)CC[C@@]4(C)[C@]3(C)CC[C@@H]12 [CARBENOXOLONE] | 88.5% | 7.62 µM | 6.64 µM |
| C[C@H]1[C@H](C)CC[C@]2(CO)CC[C@]3(C)C(=CC[C@@H]4[C@@]5(C)CC[C@H](O)C(C)(C)[C@@H]5CC[C@]43C)[C@H]12 [UVAOL] | 103% | > 100 µM | > 100 µM |
